Source: ChEMBL document CHEMBL4715808, “Discovery of (1S,2R,3S,4S,5R,6R)-2-Amino-3-[(3,4-difluorophenyl)sulfanylmethyl]-4-hydroxy-bicyclo[3.1.0]hexane-2,6-dicarboxylic Acid Hydrochloride (LY3020371·HCl): A Potent, Metabotropic Glutamate 2/3 Receptor Antagonist with Antidepressant-Like Activity” (J Med Chem, 2016)

How the values were obtained:
[1] = target: T1, Metabotropic glutamate receptor 2 (Homo sapiens, UniProt Q14416)
Description: Antagonist activity at human recombinant mGlu2 receptor stably expressed in golden hamster AV12 cells co-expressing rat EAAT1 assessed as reduction in DCG IV-induced inhibition of forskolin-stimulated cAMP accumulation preincubated for 20 mins followed by incubation with cAMP-d2 conjugate and anti-cAMP cryptate for 1 hr by HTRF assay

[2] = target: T2, Metabotropic glutamate receptor 3 (Homo sapiens, UniProt Q14832); test: Displacement of [3H]-LY459477 from recombinant human mGlu3 receptor expressed in hamster AV12 cell membranes co-expressing rat EAAT1 incubated for 90 mins by top count scintillation method; design: species or system Cell membrane
[3] = target: T2, Metabotropic glutamate receptor 3; test: Antagonist activity at human recombinant mGlu3 receptor stably expressed in golden hamster AV12 cells co-expressing rat EAAT1 assessed as reduction in DCG IV-induced inhibition of forskolin-stimulated cAMP accumulation preincubated for 20 mins followed by incubation with cAMP-d2 conjugate and anti-cAMP cryptate for 1 hr by HTRF assay; format: functional, cell-based
[4] = target: T1, Metabotropic glutamate receptor 2; remark: listed apart in the source
Description: Displacement of [3H]-LY459477 from recombinant human mGlu2 receptor expressed in hamster AV12 cell membranes co-expressing rat EAAT1 incubated for 90 mins by top count scintillation method

T2 sequence (Q14832 whole entry): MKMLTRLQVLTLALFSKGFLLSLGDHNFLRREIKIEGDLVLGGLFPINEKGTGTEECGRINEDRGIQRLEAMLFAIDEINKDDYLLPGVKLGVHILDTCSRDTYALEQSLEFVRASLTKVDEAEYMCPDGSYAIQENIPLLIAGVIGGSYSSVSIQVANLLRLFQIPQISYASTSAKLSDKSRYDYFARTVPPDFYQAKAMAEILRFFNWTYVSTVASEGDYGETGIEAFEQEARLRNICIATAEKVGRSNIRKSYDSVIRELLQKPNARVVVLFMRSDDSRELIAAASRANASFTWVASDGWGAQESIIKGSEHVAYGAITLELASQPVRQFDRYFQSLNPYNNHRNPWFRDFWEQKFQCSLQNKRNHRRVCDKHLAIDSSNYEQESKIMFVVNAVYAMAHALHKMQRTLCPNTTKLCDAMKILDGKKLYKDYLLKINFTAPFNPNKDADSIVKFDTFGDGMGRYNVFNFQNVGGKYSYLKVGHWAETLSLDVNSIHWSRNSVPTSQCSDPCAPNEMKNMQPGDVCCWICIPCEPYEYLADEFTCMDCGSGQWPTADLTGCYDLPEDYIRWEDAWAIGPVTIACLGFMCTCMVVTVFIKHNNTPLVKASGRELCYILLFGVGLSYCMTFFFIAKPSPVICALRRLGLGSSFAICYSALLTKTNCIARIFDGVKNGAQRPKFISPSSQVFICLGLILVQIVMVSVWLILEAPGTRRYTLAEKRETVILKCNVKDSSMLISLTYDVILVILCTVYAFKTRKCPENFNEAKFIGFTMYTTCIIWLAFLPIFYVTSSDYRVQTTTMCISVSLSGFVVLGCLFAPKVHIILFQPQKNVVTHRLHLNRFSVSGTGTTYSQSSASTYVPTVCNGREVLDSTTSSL
T1 sequence (Q14416 whole entry): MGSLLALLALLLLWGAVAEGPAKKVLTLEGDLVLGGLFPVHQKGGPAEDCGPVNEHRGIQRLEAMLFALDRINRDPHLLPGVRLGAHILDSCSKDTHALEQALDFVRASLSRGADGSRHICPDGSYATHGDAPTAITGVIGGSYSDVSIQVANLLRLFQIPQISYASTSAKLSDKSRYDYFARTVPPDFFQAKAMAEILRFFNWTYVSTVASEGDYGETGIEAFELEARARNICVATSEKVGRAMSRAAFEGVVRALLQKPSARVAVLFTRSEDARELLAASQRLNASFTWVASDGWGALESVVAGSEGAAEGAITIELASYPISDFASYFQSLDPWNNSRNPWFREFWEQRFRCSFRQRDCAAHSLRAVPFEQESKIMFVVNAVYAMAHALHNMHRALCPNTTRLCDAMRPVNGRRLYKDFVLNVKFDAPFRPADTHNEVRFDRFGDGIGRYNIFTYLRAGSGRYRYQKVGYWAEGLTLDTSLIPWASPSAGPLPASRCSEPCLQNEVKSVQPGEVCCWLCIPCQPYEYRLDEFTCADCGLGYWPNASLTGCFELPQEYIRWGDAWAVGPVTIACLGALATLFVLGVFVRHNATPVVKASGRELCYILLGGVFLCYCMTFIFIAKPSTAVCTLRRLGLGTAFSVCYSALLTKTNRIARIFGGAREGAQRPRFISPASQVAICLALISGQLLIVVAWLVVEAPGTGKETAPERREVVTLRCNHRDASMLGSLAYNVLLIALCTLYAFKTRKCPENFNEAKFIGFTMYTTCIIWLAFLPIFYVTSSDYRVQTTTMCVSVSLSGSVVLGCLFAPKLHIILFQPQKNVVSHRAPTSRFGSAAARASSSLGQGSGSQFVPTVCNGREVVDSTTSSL

Structure (SMILES) | IC50 [1] [nM] | Ki [2] [nM] | IC50 [3] [nM] | Ki [4] [nM]
N[C@]1(C(=O)O)[C@@H]2[C@@H](C(=O)O)[C@@H]2[C@H](O)[C@H]1CSc1ccc(F)cc1 | 20.2 | 6.8 | 41.9 | 10.4
N[C@]1(C(=O)O)[C@@H]2[C@@H](C(=O)O)[C@@H]2[C@H](O)[C@H]1CSCc1ccc(Cl)c(Cl)c1 | 49.4 | 16.3 | 62.3 | 20.5
Cc1cc(SC[C@@H]2[C@@H](Sc3nc[nH]n3)[C@H]3[C@H](C(=O)O)[C@H]3[C@]2(N)C(=O)O)ccc1F | 6.6 | – | – | 5.2
N[C@]1(C(=O)O)[C@@H]2[C@@H](C(=O)O)[C@@H]2[C@H](O)[C@H]1CSc1cccc(F)c1 | 76.2 | 25.1 | 272 | 43.7
N[C@]1(C(=O)O)[C@@H]2[C@@H](C(=O)O)[C@@H]2[C@H](O)[C@H]1CSc1ccc(Cl)c(Cl)c1 | 9.8 | 9.4 | 56.5 | 8.4
